Columns and labels:
[1] = tested on: barnyardgrass; test: Test A pre-/postemergence herbicide test; assay type: in vivo, Echinochloa crus-galli
In short: (§1)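 Visual 0–100 ratings (100 = complete control) made about 10 days after treatment, greenhouse-held plants compared with untreated controls. Treatments: postemergence sprays on one- to two-leaf plants (2–10 cm tall) and preemergence directed soil sprays after planting in loam–sand, chemicals formulated in non-phytotoxic solvent containing surfactant.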

[2] = tested on: giant foxtail; test: Test A pre-/postemergence herbicide test; assay type: in vivo, Setaria faberii
In short: as §1

[3] = tested on: corn; test: Test A pre-/postemergence herbicide test; assay type: in vivo, Zea mays; settings: Postemergence
In short: as §1

[4] = tested on: rice; test: Test B flooded paddy test; assay type: in vivo, Oryza sativa; settings: 500 g ai/ha, Flood; scale of 0 to 100 where 0 is no effect and 100 is complete control
In short: (§2)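 In-water application to pots flooded 3 cm deep, plants at 2-leaf stage. Held in greenhouse 13–15 days at constant flood depth. Scored 0–100 by eye against controls.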

[5] = tested on: sedge, umbrella; test: Test B flooded paddy test; assay type: in vivo, Cyperus difformis; settings: 500 g ai/ha, Flood; scale of 0 to 100 where 0 is no effect and 100 is complete control
In short: as §2

[6] = tested on: wheat (winter wheat); test: Test C pre-/postemergence herbicide test; assay type: in vivo, Triticum aestivum; settings: Preemergence; for Plant response rating, Wheat: scale 0 to 100
In short: (§3)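 Greenhouse plants scored visually against untreated controls 13–15 days after treatment, 0 = no effect, 100 = complete control. Test chemicals in a non-phytotoxic solvent with surfactant were applied either to soil (loam/sand) at planting or to foliage of 1- to 4-leaf plants, 2–18 cm tall.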

[7] = tested on: foxtail, giant; test: Test C pre-/postemergence herbicide test; assay type: in vivo, Setaria faberii; settings: Preemergence; for Plant response rating (scale of 0 to 100), Foxtail, Giant: 250 g ai/ha
In short: as §3

[8] = tested on: lambsquarters; test: Test C pre-/postemergence herbicide test; assay type: in vivo, Chenopodium album; settings: Preemergence; for Plant response rating, Lambsquarters: 125 g ai/ha; for Plant response rating (scale of 0 to 100), Lambsquarters: 250 g ai/ha
In short: as §3

[9] = tested on: morningglory; test: Test C pre-/postemergence herbicide test; assay type: in vivo, Ipomoea coccinea; settings: Preemergence; for Plant response rating (scale of 0 to 100), Morningglory: 250 g ai/ha
In short: as §3

[10] = tested on: nutsedge, yellow; test: Test C pre-/postemergence herbicide test; assay type: in vivo, Cyperus esculentus; settings: Preemergence; for Plant response rating (scale of 0 to 100), Nutsedge, Yellow: 250 g ai/ha
In short: as §3

[11] = tested on: velvetleaf; test: Test C pre-/postemergence herbicide test; assay type: in vivo, Abutilon theophrasti; settings: Preemergence
In short: as §3

[12] = Postemergence, 125 g ai/ha, 0 to 100 scale, 0 is no effect, 100 is complete control
[13] = Postemergence, 500 g ai/ha, 0 to 100 scale (0 no effect, 100 complete control)
[14] = Preemergence, 125 g ai/ha, 0 to 100 scale where 0 is no effect and 100 is complete control
[15] = preemergence, 500 g ai/ha, 0 to 100 scale, 0 is no effect and 100 is complete control
[16] = 500 g ai/ha, 0 to 100 scale (0 no effect, 100 complete control)
[17] = 31 g ai/ha, scale 0 to 100, 0 is no effect and 100 is complete control
[18] = 62 g ai/ha, scale 0 to 100 (0 no effect, 100 complete control)
[19] = 125 g ai/ha, scale 0 to 100 (0 no effect, 100 complete control)
[20] = Postemergence, 125 g ai/ha, visual rating on 0 to 100 scale (0 no effect, 100 complete control), approx. 10 days
[21] = Preemergence, 500 g ai/ha, visual rating on 0 to 100 scale (0 no effect, 100 complete control)

O=C1NCC(c2cc(F)cc(F)c2)C1C(=O)Nc1ccccc1Cl (racemic) [Compound 280]
Plant response rating, Barnyardgrass [1, 12]: 80 | Plant response rating, Barnyardgrass [1, 13]: 90 | Plant response rating, Barnyardgrass [1, 14]: 80 | Plant response rating, Barnyardgrass [1, 15]: 80 | Plant response rating, Foxtail, Giant [2, 12]: 70 | Plant response rating, Foxtail, Giant [2, 13]: 80 | Plant response rating, Foxtail, Giant [2, 14]: 90 | Plant response rating, Foxtail, Giant [2, 15]: 90 | Plant response rating, Corn ([3]; 125 g ai/ha, 0 to 100 scale, 0 is no effect, 100 is complete control): 0 | Plant response rating, Corn [3, 16]: 0 | Plant response rating, Rice [4]: 0 | Plant response rating, Sedge, Umbrella [5]: 0 | Wheat plant response rating [6, 17]: 0 | Wheat plant response rating [6, 18]: 0 | Plant response rating (scale of 0 to 100), Wheat ([6]; 250 g ai/ha): 0 | Foxtail, Giant plant response rating [7, 17]: 70 | Foxtail, Giant plant response rating [7, 18]: 80 | Plant response rating, Foxtail, Giant [7, 19]: 90 | Plant response rating (scale of 0 to 100), Foxtail, Giant [7]: 95 | Lambsquarters plant response rating [8, 17]: 0 | Lambsquarters plant response rating [8, 18]: 0 | Plant response rating, Lambsquarters ([8]; scale 0 to 100 (0 no effect, 100 complete control)): 10 | Plant response rating (scale of 0 to 100), Lambsquarters [8]: 10 | Morningglory plant response rating [9, 17]: 10 | Morningglory plant response rating [9, 18]: 25 | Plant response rating, Morningglory [9, 19]: 0 | Plant response rating (scale of 0 to 100), Morningglory [9]: 30 | Nutsedge, Yellow plant response rating [10, 17]: 0 | Nutsedge, Yellow plant response rating [10, 18]: 0 | Plant response rating, Nutsedge, Yellow [10, 19]: 0 | Plant response rating (scale of 0 to 100), Nutsedge, Yellow [10]: 100 | Velvetleaf plant response rating [11, 17]: 0 | Velvetleaf plant response rating [11, 18]: 0 | Plant response rating, Velvetleaf [11, 19]: 0 | Plant response rating (scale of 0 to 100), Velvetleaf ([11]; 250 g ai/ha): 10

O=C1NCC(c2ccc(OC(F)F)cc2)C1C(=O)Nc1cccc(F)c1F (racemic) [Compound 350]
Plant response rating, Barnyardgrass [1, 20]: 70 | Plant response rating, Barnyardgrass [1, 13]: 90 | Plant response rating, Barnyardgrass [1, 14]: 90 | Barnyardgrass plant response rating [1, 21]: 90 | Plant response rating, Foxtail, Giant [2, 20]: 80 | Plant response rating, Foxtail, Giant [2, 13]: 90 | Plant response rating, Foxtail, Giant [2, 14]: 90 | Foxtail, Giant plant response rating [2, 21]: 90 | Plant response rating, Corn ([3]; 125 g ai/ha, visual rating on 0 to 100 scale (0 no effect, 100 complete control), approx. 10 days): 20 | Plant response rating, Corn [3, 16]: 40 | Plant response rating, Rice [4]: 0 | Plant response rating, Sedge, Umbrella [5]: 0 | Wheat plant response rating [6, 18]: 0 | Plant response rating, Wheat ([6]; 125 g ai/ha): 0 | Plant response rating, Wheat ([6]; 31 g ai/ha): 0 | Foxtail, Giant plant response rating [7, 18]: 90 | Plant response rating, Foxtail, Giant ([7]; 125 g ai/ha, scale 0 to 100): 90 | Plant response rating (scale of 0 to 100), Foxtail, Giant [7]: 90 | Plant response rating, Foxtail, Giant ([7]; 31 g ai/ha, scale 0 to 100): 85 | Lambsquarters plant response rating [8, 18]: 90 | Plant response rating, Lambsquarters ([8]; scale 0 to 100): 90 | Plant response rating (scale of 0 to 100), Lambsquarters [8]: 90 | Morningglory plant response rating [9, 18]: 100 | Plant response rating, Morningglory ([9]; 125 g ai/ha, scale 0 to 100): 100 | Plant response rating (scale of 0 to 100), Morningglory [9]: 100 | Plant response rating, Morningglory ([9]; 31 g ai/ha, scale 0 to 100): 100 | Nutsedge, Yellow plant response rating [10, 18]: 0 | Plant response rating, Nutsedge, Yellow ([10]; 125 g ai/ha, scale 0 to 100): 0 | Plant response rating (scale of 0 to 100), Nutsedge, Yellow [10]: 0 | Plant response rating, Nutsedge, Yellow ([10]; 31 g ai/ha, scale 0 to 100): 0 | Velvetleaf plant response rating [11, 18]: 0 | Plant response rating, Velvetleaf ([11]; 125 g ai/ha, scale 0 to 100): 0 | Plant response rating, Velvetleaf ([11]; 31 g ai/ha, scale 0 to 100): 0

— patent US10294202B2, “Pyrrolidinones as herbicides” (FMC Corporation, priority 2013, dated 2019)
